Laboratory results published in the NIST ThermoML archive (doi:10.1016/j.fluid.2007.03.021).
Numbers after ± are expanded uncertainties.

Conditions: Liquid

Structure (SMILES): CCO [ethanol]
- viscosity (298.15 K, 101.33 kPa, Capillary tube (Ostwald / Ubbelohde) method): 1.082 ± 0.009 mPa·s
- Normal boiling temperature (Ebulliometric method (Recirculating still)): 78.28 ± 0.05 °C
